Experimental data reported in article PMC11079024, “Identification of a family of species-selective complex I inhibitors as potential anthelmintics” (Nature Communications, 2024).
pIC50: −log10 of the molar value. Values joined by “and” are separate entries in the source; they are usually repeats but may differ in a detail not shown here. Equal values may be shown once. Read-outs that look alike come from different tables or passages of the source.

Biological target: M. musculus (heart) complex I (Mus musculus, UniProt P03888+Q91WD5+Q9DC70)
Sequence (Q91WD5 34-463): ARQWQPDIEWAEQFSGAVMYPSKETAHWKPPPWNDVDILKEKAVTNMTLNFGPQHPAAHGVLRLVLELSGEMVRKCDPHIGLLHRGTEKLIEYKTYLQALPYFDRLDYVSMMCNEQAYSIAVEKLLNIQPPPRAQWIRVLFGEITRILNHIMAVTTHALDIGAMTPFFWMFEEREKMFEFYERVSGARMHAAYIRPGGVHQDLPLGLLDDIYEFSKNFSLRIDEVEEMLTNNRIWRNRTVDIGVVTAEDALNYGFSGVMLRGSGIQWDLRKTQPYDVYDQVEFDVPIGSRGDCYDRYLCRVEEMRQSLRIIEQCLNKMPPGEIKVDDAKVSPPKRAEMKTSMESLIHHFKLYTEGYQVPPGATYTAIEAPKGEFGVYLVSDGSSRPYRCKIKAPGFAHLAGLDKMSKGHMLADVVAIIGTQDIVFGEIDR
Sequence (Q9DC70 36-224): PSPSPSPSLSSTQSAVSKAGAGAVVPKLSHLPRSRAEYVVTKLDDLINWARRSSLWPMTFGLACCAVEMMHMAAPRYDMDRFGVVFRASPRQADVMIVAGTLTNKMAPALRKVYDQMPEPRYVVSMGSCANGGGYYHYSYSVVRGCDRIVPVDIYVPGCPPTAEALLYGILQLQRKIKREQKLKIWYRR
Sequence (P03888 whole entry): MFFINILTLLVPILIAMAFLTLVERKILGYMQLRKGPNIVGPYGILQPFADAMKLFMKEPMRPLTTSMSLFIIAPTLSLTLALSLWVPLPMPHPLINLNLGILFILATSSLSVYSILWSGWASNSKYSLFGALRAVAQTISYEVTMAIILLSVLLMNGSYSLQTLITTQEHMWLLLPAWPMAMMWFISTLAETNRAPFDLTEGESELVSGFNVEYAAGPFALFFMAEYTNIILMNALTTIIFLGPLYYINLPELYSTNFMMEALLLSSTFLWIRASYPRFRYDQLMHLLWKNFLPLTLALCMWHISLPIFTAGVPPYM
Experiment: biochemical
Format: biochemical
Parameters: Complex I activity, dose-response data: unit not given here
Procedure: Six 8–10-week-old C57Bl/6 female mice (Charles River) were freshly dissected, and their livers and hearts collected into separate 1.5 mL microcentrifuge tubes. Organs were flash-frozen in liquid nitrogen and stored at −80 °C prior to use. The heart of a freshly slaughtered adult cow was obtained from a local abattoir (Peel Sausage Inc.), chopped into ~1-inch cubes and collected into 50 mL falcon tubes. Falcon tubes were flash-frozen in a container of dry ice and stored at −80 °C prior to use. Isolation of mitochondria from all mammalian tissue was carried out following the protocol described above. However, due to size, the initial homogenization of tissue was performed by 15 strokes in a dounce homogenizer (mouse heart) or with several 5 s pulses in small Nutribullet blender (cow heart). All mouse protocols for mouse care and dissection were reviewed and approved by the University of Toronto Animal Care Committee, in accordance with the Canadian Council on Animal Care.
The enzymatic activities of individual ETC complexes (I-IV) were assessed spectrophotometrically in isolated mitochondria using a Varioskan LUX Multimode plate reader (ThermoFisher Scientific). Mitochondrial pellets previously isolated were thawed on ice and resuspended in ice-cold isolation buffer (250 mM sucrose, 10 mM Tris (pH 7.5), 1 mM EDTA). The BCA assay (Walker, 1994) was used to quantify the protein concentration of mitochondria suspensions; solutions were diluted to a concentration of 0.2 mg/mL for use in all assays. For the complex I assay, mitochondria pellets were freeze-thawed on ice three times to increase enzyme accessibility. […] 20 μL mitochondria suspension was then added/mixed with a pipette to initiate the reaction. Immediately following the addition of mitochondria, absorbance was measured (complex I and II: 600 nm; complex III and IV: 550 nm) in 30 s intervals over 15 min. Enzymatic activity was determined in each reaction by plotting absorbance versus time and calculating the slope of the curve during the initial linear phase of the reaction. […] Percent activity of each complex was calculated by dividing the enzyme-specific activity of each well by the enzyme-specific activity of the corresponding solvent controls.
Chemical solutions were prepared in complex I assay buffer composed of 25 mM KPi buffer (pH 7.5), 3 mg/mL bovine serum albumin (BSA), 80 μM NADH, 60 μM decylubiquinone, 160 μM DCIP, 2 μM antimycin A and 2 mM KCN.
For preliminary screens of hit compounds, compounds were screened at 100 μM; data are the average of at least three biological replicates. The complex I and II activity assays were used for additional dose-response experiments. […] For dose responses of benzimidazole analogs, data represent the average of two biological replicates. For all other dose-responses, data represent the average of at least three biological replicates.

[1] = M. musculus (heart) mitochondria, mean of replicates, read-out: percent (%) in vitro complex I activity relative to solvent control
[2] = M. musculus (heart) mitochondria, single replicate, read-out: percent (%) in vitro complex I activity relative to solvent control
[3] = M. musculus (heart) mitochondria, Mean of replicates, read-out: in vitro complex I activity relative to solvent control
[4] = M. musculus (heart) mitochondria, single replicate, read-out: in vitro complex I activity relative to solvent control

CC(C)Cc1ccc(C(C)c2nc3ccccc3n2C)cc1 (centres unmarked) [NPD8790]
remaining activity at 0.125 µM [1]: 101% | remaining activity at 0.125 µM [2]: 99.7% | remaining activity at 0.313 µM [1]: 97.5% | remaining activity at 0.313 µM [2]: 97.7% | remaining activity at 0.625 µM [1]: 100% | remaining activity at 0.625 µM [2]: 100% | remaining activity at 1.5 µM [1]: 100% | remaining activity at 1.5 µM [2]: 100% | remaining activity at 3 µM [1]: 99.1% | remaining activity at 3 µM [2]: 100% | remaining activity at 15 µM [1]: 78.9% | remaining activity at 15 µM [2]: 77.5% | remaining activity at 37.5 µM [1]: 44.3% | remaining activity at 37.5 µM [2]: 40.4% | remaining activity at 75 µM [1]: 24.7% | remaining activity at 75 µM [2]: 18% | remaining activity at 0.06 µM (M. musculus (heart) mitochondria, 0.06 µM, Mean of replicates, read-out: in vitro complex I activity relative to solvent control): 103% | remaining activity at 0.13 µM [3]: 101% | remaining activity at 0.13 µM [4]: 99.7% | remaining activity at 0.313 µM [3]: 97.5% | remaining activity at 0.313 µM [4]: 97.7% | remaining activity at 0.625 µM [3]: 100% | remaining activity at 0.625 µM [4]: 100% | remaining activity at 1.5 µM [3]: 100% | remaining activity at 1.5 µM [4]: 100% | remaining activity at 3 µM [3]: 99.1% | remaining activity at 3 µM [4]: 100% | remaining activity at 15 µM [3]: 78.9% | remaining activity at 15 µM [4]: 77.5% | remaining activity at 37.5 µM [3]: 44.3% | remaining activity at 37.5 µM [4]: 40.4% | remaining activity at 75 µM [3]: 24.7% | remaining activity at 75 µM [4]: 18% | activity at 0.0001 µM (M. musculus, Mean of replicates, read-out: Complex I activity, dose-response data): 100% | activity at 0.0001 µM (M. musculus, individual replicates (Rep), read-out: Complex I activity, dose-response data): 100% | activity at 0.0005 µM (M. musculus, dose 0.0005 µM, Mean of replicates, read-out: Complex I activity, dose-response data): 103% | Complex I activity, dose-response data (M. musculus, dose 0.0005 µM, individual replicates (Rep)): 104.677 and 101.090 and 100.240 | activity at 0.0005 µM (M. musculus, dose 0.0005 µM, individual replicates (Rep), read-out: Complex I activity, dose-response data): 105% | activity at 0.001 µM (M. musculus, dose 0.001 µM, Mean of replicates, read-out: Complex I activity, dose-response data): 103% | Complex I activity, dose-response data (M. musculus, dose 0.001 µM, individual replicates (Rep)): 105.312 and 100.449 and 100.153 | activity at 0.001 µM (M. musculus, dose 0.001 µM, individual replicates (Rep), read-out: Complex I activity, dose-response data): 106% | activity at 0.0025 µM (M. musculus, dose 0.0025 µM, Mean of replicates, read-out: Complex I activity, dose-response data): 104% | Complex I activity, dose-response data (M. musculus, dose 0.0025 µM, individual replicates (Rep)): 112.270 and 101.643 and 99.207 | activity at 0.0025 µM (M. musculus, dose 0.0025 µM, individual replicates (Rep), read-out: Complex I activity, dose-response data): 103% | activity at 0.005 µM (M. musculus, dose 0.005 µM, Mean of replicates, read-out: Complex I activity, dose-response data): 104% | Complex I activity, dose-response data (M. musculus, dose 0.005 µM, individual replicates (Rep)): 110.480 and 103.776 and 102.056 | activity at 0.005 µM (M. musculus, dose 0.005 µM, individual replicates (Rep), read-out: Complex I activity, dose-response data): 101% | activity at 0.013 µM (M. musculus, dose 0.013 µM, Mean of replicates, read-out: Complex I activity, dose-response data): 104% | Complex I activity, dose-response data (M. musculus, dose 0.013 µM, individual replicates (Rep)): 111.361 and 104.185 and 100.073 | activity at 0.013 µM (M. musculus, dose 0.013 µM, individual replicates (Rep), read-out: Complex I activity, dose-response data): 99.2% | activity at 0.025 µM (M. musculus, dose 0.025 µM, Mean of replicates, read-out: Complex I activity, dose-response data): 106% | Complex I activity, dose-response data (M. musculus, dose 0.025 µM, individual replicates (Rep)): 117.035 and 103.670 and 100.685 | activity at 0.025 µM (M. musculus, dose 0.025 µM, individual replicates (Rep), read-out: Complex I activity, dose-response data): 102% | activity at 0.063 µM (M. musculus, dose 0.063 µM, Mean of replicates, read-out: Complex I activity, dose-response data): 103% | Complex I activity, dose-response data (M. musculus, dose 0.063 µM, individual replicates (Rep)): 102.752 and 117.261 and 99.301 and 94.461 | activity at 0.125 µM (M. musculus, dose 0.125 µM, Mean of replicates, read-out: Complex I activity, dose-response data): 101% | Complex I activity, dose-response data (M. musculus, dose 0.125 µM, individual replicates (Rep)): 109.547 and 101.293 and 94.390 | activity at 0.125 µM (M. musculus, dose 0.125 µM, individual replicates (Rep), read-out: Complex I activity, dose-response data): 99.7% | Complex I activity, dose-response data (M. musculus, dose 0.313 µM, individual replicates (Rep)): 201.293 and 194.390 | activity at 0.313 µM (M. musculus, dose 0.313 µM, individual replicates (Rep), read-out: Complex I activity, dose-response data): 210% | Complex I activity, dose-response data (M. musculus, dose 0.625 µM, individual replicates (Rep)): 301.293 and 294.390 | activity at 0.625 µM (M. musculus, dose 0.625 µM, individual replicates (Rep), read-out: Complex I activity, dose-response data): 310% | Complex I activity, dose-response data (M. musculus, dose 1.5 µM, individual replicates (Rep)): 401.293 and 394.390 | activity at 1.5 µM (M. musculus, dose 1.5 µM, individual replicates (Rep), read-out: Complex I activity, dose-response data): 410% | activity at 3 µM (M. musculus, dose 3 µM, Mean of replicates, read-out: Complex I activity, dose-response data): 99.1% | Complex I activity, dose-response data (M. musculus, dose 3 µM, individual replicates (Rep)): 102.668 and 98.080 and 95.248 | activity at 3 µM (M. musculus, dose 3 µM, individual replicates (Rep), read-out: Complex I activity, dose-response data): 100% | activity at 15 µM (M. musculus, dose 15 µM, Mean of replicates, read-out: Complex I activity, dose-response data): 78.9% | Complex I activity, dose-response data (M. musculus, dose 15 µM, individual replicates (Rep)): 87.100 and 75.283 and 75.658 | activity at 15 µM (M. musculus, dose 15 µM, individual replicates (Rep), read-out: Complex I activity, dose-response data): 77.5% | activity at 37.5 µM (M. musculus, dose 37.5 µM, Mean of replicates, read-out: Complex I activity, dose-response data): 44.3% | Complex I activity, dose-response data (M. musculus, dose 37.5 µM, individual replicates (Rep)): 50.337 and 43.421 and 43.042 | activity at 37.5 µM (M. musculus, dose 37.5 µM, individual replicates (Rep), read-out: Complex I activity, dose-response data): 40.4% | activity at 75 µM (M. musculus, dose 75 µM, Mean of replicates, read-out: Complex I activity, dose-response data): 24.7% | Complex I activity, dose-response data (M. musculus, dose 75 µM, individual replicates (Rep)): 29.417 and 25.967 and 25.618 | activity at 75 µM (M. musculus, dose 75 µM, individual replicates (Rep), read-out: Complex I activity, dose-response data): 18% | pIC50 (heart mitochondria): 4.54
